Test results: PMC4140855, “Production of an Attenuated Phenol-Soluble Modulin Variant Unique to the MRSA Clonal Complex 30 Increases Severity of Bloodstream Infection” (PLoS Pathogens, 2014)

Columns and labels:
[1] = tested on: kidneys (hematogenous seeding); test: Mouse bacteremia (renal abscess) model; assay type: in vivo; conditions: expressed in MRSA252 and 22030, versus isogenic strains expressing non-CC30 PSMα3
Description: (A) The MRSA252 strain (252, expressing PSMα3N22Y) was compared to a strain (252*) in which the psmα3 gene was changed to express non-CC30 PSMα3 in a mouse model of blood infection. Hematogenous seeding into the kidneys was measured 4 days after infecting mice via the tail vein with 1×10^7 CFU. Results from kidneys with considerable bacterial numbers (>10^3 CFU) are shown in the graph; the number of kidneys with lower or no bacteria is shown at the bottom. Analysis of significance was performed with the numbers obtained from all kidneys; *, p<0.05. Number of mice used per strain: 10. Two counts per analyzed kidney were performed. (B) Experiment as in (A) with strain 22030 expressing PSMα3N22Y and the isogenic 22030* strain expressing PSMα3. Number of mice used per strain: 20; two counts per analyzed kidney are included; inoculum: 1×10^6. *, p<0.05. (C, D) Tubulointerstitial nephritis with large colonies of bacteria (arrows) in kidneys infected with strain 252, magnification 100× (C) and 200× (D). (E) Absence of signs of infection in kidneys infected with strain 252* (magnification 100×).
For the renal abscess model, S. aureus strains were inoculated from a pre-culture and grown to mid-exponential growth phase (∼2 h), harvested, washed, and diluted with sterile PBS. […]

abscess or lesion = test: Mouse model of skin infection (abscess sizes); assay type: in vivo; conditions: Crl∶SKH1-hrBR mice, subcutaneous, 14 d; expressed in strains MRSA252 and 22030
Description: The mouse skin infection model was performed as described. Briefly, six to eight week-old female Crl∶SKH1-hrBR hairless mice (Charles River Laboratories) were injected subcutaneously with ∼4×10^7 CFU of S. aureus strains 252 or 252*, or ∼5×10^6 CFU of S. aureus strains 22030 or 22030* in 50 µl of PBS in the left flank of the mouse. The length (L) and width (W) of the abscess or lesion caused by the bacterial infection was measured with an electronic caliper daily for 14 d post infection and calculated using the formula L×W. Typically, strain MRSA252 caused closed abscesses and strain 22030 open lesions. All animals were euthanized after completion of the entire procedure. All mouse experiments were performed blinded at the animal care facility of the NIAID, Building 33, in compliance with the guidelines of the NIAID/NIH Institutional Animal Care and Use Committee.
Supplementary file ppat.1004298.s002.tif: Figure S2 Mouse model of skin infection. […] The length (L) and width (W) of the abscess or lesion caused by the bacterial infection was measured with an electronic caliper daily for 14 d post infection and calculated using the formula L×W. Typically, strain MRSA 252 caused closed abscesses and strain 22030 open lesions. […]

CSCC[C@H](NC=O)C(=O)N[C@@H](CCC(=O)O)C(=O)N[C@@H](Cc1ccccc1)C(=O)N[C@H](C(=O)N[C@@H](C)C(=O)N[C@@H](CCCCN)C(=O)N[C@@H](CC(C)C)C(=O)N[C@@H](Cc1ccccc1)C(=O)N[C@@H](CCCCN)C(=O)N[C@@H](Cc1ccccc1)C(=O)N[C@@H](Cc1ccccc1)C(=O)N[C@@H](CCCCN)C(=O)N[C@@H](CC(=O)O)C(=O)N[C@@H](CC(C)C)C(=O)N[C@@H](CC(C)C)C(=O)NCC(=O)N[C@@H](CCCCN)C(=O)N[C@@H](Cc1ccccc1)C(=O)N[C@@H](CC(C)C)C(=O)NCC(=O)N[C@@H](CC(N)=O)C(=O)N[C@@H](Cc1ccc(O)cc1)C(=O)O)C(C)C [PSMα3N22Y]
Capacity to cause sepsis and subsequent complications [1]: increased capacity to cause sepsis and subsequent complications
Virulence in skin infections as measured by abscess sizes (abscess or lesion): did not cause increased virulence in skin infections
